Laboratory results reported in patent US10640534B2 (Agios Pharmaceuticals, Inc., priority 2012, dated 2020).

Legend:
[1] = system: HT1080 cells; experiment: Cellular assay, inhibition of 2-HG production in HT1080 cells; type: cell-based
Protocol: Cells (HT1080 or U87MG) are grown in T125 flasks in DMEM containing 10% FBS, 1× penicillin/streptomycin and 500 ug/mL G418 (present in U87MG cells only). They are harvested by trypsin and seeded into 96 well white bottom plates at a density of 5000 cell/well in 100 ul/well in DMEM with 10% FBS. […] Cells are incubated overnight at 37° C. in 5% CO2. The next day test compounds are made up at 2× the final concentration and 100 ul are added to each cell well. The final concentration of DMSO is 0.2% and the DMSO control wells are plated in row G. The plates are then placed in the incubator for 48 hours. […] The cell plate is placed back in the incubator for another 24 hours. At 72 hours post compound addition, 10 mL/plate of Promega Cell Titer Glo reagent is thawed and mixed. The cell plate is removed from the incubator and allowed to equilibrate to room temperature. Then 100 ul of Promega Cell Titer Glo reagent is added to each well of media. The cell plate is then placed on an orbital shaker for 10 minutes and then allowed to sit at room temperature for 20 minutes. The plate is then read for luminescence with an integration time of 500 ms.

[2] = system: U87MG cells; experiment: Cellular assay, inhibition of 2-HG production in U87MG cells; type: cell-based
Summary of the method: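 HT1080 or U87MG cells (U87MG kept with 500 ug/mL G418) seeded at 5000 cells/well and treated with compound at 0.2% final DMSO. Incubated 48 h at 37 °C. 2-HG inhibition determined by LC-MS. Viability read by CellTiter-Glo luminescence at 72 h post-dose.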

[3] = inhibition of 2-HG production, HT1080 cells, 48 hours
[4] = inhibition of 2-HG production, U87MG cells, 48 hours

IC50 ([1]; Homo sapiens, HT-1080, 48 h) | IC50 ([2]; Homo sapiens, U-87 MG, 48 h) | IC50 [1, 3] | IC50 [2, 4] | Compound
100 to 500 nM | 100 to 500 nM |  |  | O=C(NC1CC(F)(F)C1)[C@H](c1ccccc1Cl)N(C(=O)[C@@H]1CCC(=O)N1c1cc(C(F)(F)F)ccn1)c1cccc(F)c1 [Compound 40]
100 to 500 nM | 100 to 500 nM |  |  | O=C(NC1CC(F)(F)C1)[C@H](c1ccccc1Cl)N(C(=O)[C@@H]1COCC(=O)N1c1ncccn1)c1cccc(F)c1 [Compound 45]
< 100 nM | < 100 nM |  |  | CC(C)(C)c1cccc(N(C(=O)[C@@H]2CCC(=O)N2c2nccc(C#N)n2)[C@H](C(=O)NC2CC(F)(F)C2)c2ccccc2Cl)c1 [Compound 165, (S)—N-(3-(tert-Butyl)phenyl)-N—((S)-1-(2-chlorophenyl)-2-((3,3-difluorocyclobutyl)amino)-2-oxoethyl)-1-(4-cyanopyrimidin-2-yl)-5-oxopyrrolidine-2-carboxamide]
< 100 nM | < 100 nM |  |  | N#Cc1ccnc(N2C(=O)CC[C@H]2C(=O)N(c2cccc(F)c2)[C@H](C(=O)NC2CC(F)(F)C2)c2c(Cl)cccc2Cl)c1 (single isomer, unassigned) [Compound 63]
100 to 500 nM | < 100 nM |  |  | N#Cc1cccc(N(C(=O)[C@@H]2CCC(=O)N2c2nccc(C#N)n2)[C@H](C(=O)NC2CCC(F)(F)CC2)c2ccccc2Cl)c1 [Compound 178, (S)—N—((S)-1-(2-Chlorophenyl)-2-((4,4-difluorocyclohexyl)amino)-2-oxoethyl)-N-(3-cyanophenyl)-1-(4-cyanopyrimidin-2-yl)-5-oxopyrrolidine-2-carboxamide]
< 100 nM | 100 to 500 nM |  |  | CS(=O)(=O)c1cccc(N(C(=O)[C@@H]2CCC(=O)N2c2nccc(C#N)n2)C(C(=O)NC2CC(F)(F)C2)c2ccccc2Cl)c1 (mixture of isomers) [Compound 102, (2S)—N-(1-(2-Chlorophenyl)-2-((3,3-difluorocyclobutyl)amino)-2-oxoethyl)-1-(4-cyanopyrimidin-2-yl)-N-(3-(methylsulfonyl)phenyl)-5-oxopyrrolidine-2-carboxamide]
100 to 500 nM | 100 to 500 nM |  |  | O=C(NC1CC(F)C1)[C@H](c1ccccc1Cl)N(C(=O)[C@@H]1CCC(=O)N1c1ncccn1)c1cccc(F)c1 (stereo partly shown) [Compound 49]
100 to 500 nM | 100 to 500 nM |  |  | O=C(NC1CC(F)(F)C1)[C@H](c1ccccc1Cl)N(C(=O)[C@@H]1CCC(=O)N1c1ccc(Cl)cn1)c1cccc(F)c1 [Compound 48]
100 to 500 nM | 100 to 500 nM |  |  | Cc1cccnc1N1C(=O)CC[C@H]1C(=O)N(c1cccc(F)c1)[C@H](C(=O)NC1CC(F)(F)C1)c1ccccc1Cl [Compound 15]
100 to 500 nM |  |  |  | O=C(NC1CCC(F)(F)CC1)[C@@H](c1ccccc1Cl)N(C(=O)[C@@H]1CCC(=O)N1c1ncccn1)c1cccc(F)c1 [Compound 3, (S)—N—((R)-1-(2-Chlorophenyl)-2-((4,4-difluorocyclohexyl)amino)-2-oxoethyl)-N-(3-fluorophenyl)-5-oxo-1-(pyrimidin-2-yl)pyrrolidine-2-carboxamide]
 |  | < 100 nM | < 100 nM | (2S)—N-(1-(2-Chlorophenyl)-2-((3,3-difluorocyclobutyl)amino)-2-oxoethyl)-1-(4-cyanopyridin-2-yl)-N-(3-fluoro-5-(methylsulfonyl)phenyl)-5-oxopyrrolidine-2-carboxamide [Compound 110]
100 to 500 nM | 500 to 1000 nM |  |  | O=C(NC1CC(F)(F)C1)[C@H](c1ccccc1Cl)N(C(=O)[C@@H]1CCC(=O)N1c1nccc2ccccc12)c1cccc(F)c1 [Compound 16]
100 to 500 nM |  |  |  | O=C(NC1CCCCC1)[C@@H](c1ccccc1Cl)N(C(=O)[C@@H]1CCC(=O)N1c1ncccn1)c1cccc(F)c1 [Compound 6]
< 100 nM | < 100 nM |  |  | O=C(NC1CCC(F)(F)C1)C(c1ccccc1Cl)N(C(=O)[C@@H]1CCC(=O)N1c1ncccn1)c1cccc(F)c1 (mixture of isomers) [Compound 73, (2S)—N-(1-(2-Chlorophenyl)-2-((3,3-difluorocyclopentyl)amino)-2-oxoethyl)-N-(3-fluorophenyl)-5-oxo-1-(pyrimidin-2-yl)pyrrolidine-2-carboxamide]
< 100 nM | < 100 nM |  |  | N#Cc1ccnc(N2C(=O)CC[C@H]2C(=O)N(c2cccc(-c3cn[nH]c3)c2)[C@H](C(=O)NC2CC(F)(F)C2)c2ccccc2Cl)c1 (single isomer, unassigned) [Compound 200]
500 to 1000 nM | 1000 to 2000 nM |  |  | COc1cccnc1N1C(=O)CC[C@H]1C(=O)N(c1cccc(F)c1)[C@H](C(=O)NC1CC(F)(F)C1)c1ccccc1Cl [Compound 17]
< 100 nM |  |  |  | Cc1cccc(N2C(=O)CC[C@H]2C(=O)N(c2cccc(F)c2)[C@H](C(=O)NC2CC(F)(F)C2)c2ccccc2Cl)n1 [Compound 28]
 |  | < 100 nM | < 100 nM | (S)-1-(4-Cyanopyridin-2-yl)-N—((S)-2-(3,3-difluorocyclobutylamino)-1-(2-fluorophenyl)-2-oxoethyl)-N-(3,5-difluorophenyl)-5-oxopyrrolidine-2-carboxamide [Compound 208]
< 100 nM | < 100 nM |  |  | N#Cc1ccnc(N2C(=O)CC[C@H]2C(=O)N(c2cccc(OC3CC3)c2)C(C(=O)NC2CC(F)(F)C2)c2ccccc2Cl)n1 (stereo partly drawn) [Compound 192, (2S)—N-(1-(2-Chlorophenyl)-2-((3,3-difluorocyclobutyl)amino)-2-oxoethyl)-1-(4-cyanopyrimidin-2-yl)-N-(3-cyclopropoxyphenyl)-5-oxopyrrolidine-2-carboxamide]
 | < 100 nM |  |  | N#Cc1ccnc(N2C(=O)CC[C@H]2C(=O)N(c2cccc(CO)c2)[C@H](C(=O)NC2CC(F)(F)C2)c2ccccc2Cl)c1 [Compound 131, (S)—N—((S)-1-(2-Chlorophenyl)-2-(3,3-difluorocyclobutylamino)-2-oxoethyl)-1-(4-cyanopyridin-2-yl)-N-(3-(hydroxymethyl)phenyl)-5-oxopyrrolidine-2-carboxamide]
 | < 100 nM |  |  | C[C@]1(O)C[C@@H](C(=O)N(c2cccc(F)c2)C(C(=O)NC2CC(F)(F)C2)c2ccccc2Cl)N(c2cc(C#N)ccn2)C1=O (single isomer, unassigned) [Compound 183]
 | < 100 nM |  |  | CS(=O)(=O)c1cc(F)cc(N(C(=O)[C@@H]2CCC(=O)N2c2nccc(C#N)n2)[C@H](C(=O)NC2CCC(F)(F)CC2)c2ccccc2Cl)c1 [Compound 168, (S)—N—((S)-1-(2-Chlorophenyl)-2-((4,4-difluorocyclohexyl)amino)-2-oxoethyl)-1-(4-cyanopyrimidin-2-yl)-N-(3-fluoro-5-(methylsulfonyl)phenyl)-5-oxopyrrolidine-2-carboxamide]
 | < 100 nM |  |  | O=C(NC1CCC(F)(F)CC1)[C@H](c1ccccc1Cl)N(C(=O)[C@@H]1CCC(=O)N1c1cnccn1)c1cccc(F)c1 [Compound 58, (S)—N—((S)-1-(2-Chlorophenyl)-2-(4,4-difluorocyclohexylamino)-2-oxoethyl)-N-(3-fluorophenyl)-5-oxo-1-(pyrazin-2-yl)pyrrolidine-2-carboxamide]
 | < 100 nM |  |  | N#Cc1ccnc(N2C(=O)CNC[C@H]2C(=O)N(c2cc(F)cc(F)c2)[C@H](C(=O)NC2CC(F)(F)C2)c2ccccc2Cl)c1 [Compound 100, (S)—N—((S)-1-(2-Chlorophenyl)-2-((3,3-difluorocyclobutyl)amino)-2-oxoethyl)-1-(4-cyanopyridin-2-yl)-N-(3,5-difluorophenyl)-6-oxopiperazine-2-carboxamide]
 | 100 to 500 nM |  |  | O=C(NC1CC(F)(F)C1)C(c1c(Cl)cccc1Cl)N(C(=O)[C@@H]1CCC(=O)N1c1ncccn1)c1cccc(F)c1 (stereo partly shown) [Compound 51]
 | < 100 nM |  |  | N#Cc1cccc(N(C(=O)[C@@H]2C[C@@H](O)C(=O)N2c2cc(C#N)ccn2)C(C(=O)NC2CC(F)(F)C2)c2ccccc2Cl)c1 (stereo partly drawn) [Compound 170, (2S,4R)—N-(1-(2-chlorophenyl)-2-((3,3-difluorocyclobutyl)amino)-2-oxoethyl)-N-(3-cyano-phenyl)-1-(4-cyanopyridin-2-yl)-4-hydroxy-5-oxopyrrolidine-2-carboxamide]
 | 100 to 500 nM |  |  | N#Cc1ccnc(N2C(=O)CC[C@H]2C(=O)N(c2cccc(S(N)(=O)=O)c2)[C@H](C(=O)NC2CC(F)(F)C2)c2ccccc2Cl)c1 [Compound 84, (S)—N—((S)-1-(2-Chlorophenyl)-2-(3,3-difluorocyclobutylamino)-2-oxoethyl)-1-(4-cyanopyridin-2-yl)-5-oxo-N-(3-sulfamoylphenyl)pyrrolidine-2-carboxamide]
 | < 100 nM |  |  | N#Cc1ccnc(N2C(=O)OCC[C@H]2C(=O)N(c2cc(F)cc(F)c2)[C@H](C(=O)NC2CC(F)(F)C2)c2ccccc2Cl)c1 [Compound 133, (S)—N—((S)-1-(2-Chlorophenyl)-2-((3,3-difluorocyclobutyl)amino)-2-oxoethyl)-3-(4-cyanopyridin-2-yl)-N-(3,5-difluorophenyl)-2-oxo-1,3-oxazinane-4-carboxamide]

Compound | IC50 ([1]; Homo sapiens, HT-1080, 48 h) | IC50 ([2]; Homo sapiens, U-87 MG, 48 h) | IC50 [1, 3] | IC50 [2, 4]
(S)-tert-butyl 3-(((S)-1-(2-chlorophenyl)-2-((3,3-difluorocyclobutyl)amino)-2-oxoethyl)(3,5-difluorophenyl)carbamoyl)-5-oxopiperazine-1-carboxylate [Compound 97] |  |  | < 100 nM | < 100 nM
